Experimental data published in PMC8162731 (ACS chemical biology, 2020).

Target: SnDHAD (Synechocystis sp. PCC 6803, UniProt P74689)
Test: DHAD activity inhibition assay
Assay type: biochemical
Conditions: read-out: % inhibition at 0.5 mM

Chain of SnDHAD (P74689 whole entry): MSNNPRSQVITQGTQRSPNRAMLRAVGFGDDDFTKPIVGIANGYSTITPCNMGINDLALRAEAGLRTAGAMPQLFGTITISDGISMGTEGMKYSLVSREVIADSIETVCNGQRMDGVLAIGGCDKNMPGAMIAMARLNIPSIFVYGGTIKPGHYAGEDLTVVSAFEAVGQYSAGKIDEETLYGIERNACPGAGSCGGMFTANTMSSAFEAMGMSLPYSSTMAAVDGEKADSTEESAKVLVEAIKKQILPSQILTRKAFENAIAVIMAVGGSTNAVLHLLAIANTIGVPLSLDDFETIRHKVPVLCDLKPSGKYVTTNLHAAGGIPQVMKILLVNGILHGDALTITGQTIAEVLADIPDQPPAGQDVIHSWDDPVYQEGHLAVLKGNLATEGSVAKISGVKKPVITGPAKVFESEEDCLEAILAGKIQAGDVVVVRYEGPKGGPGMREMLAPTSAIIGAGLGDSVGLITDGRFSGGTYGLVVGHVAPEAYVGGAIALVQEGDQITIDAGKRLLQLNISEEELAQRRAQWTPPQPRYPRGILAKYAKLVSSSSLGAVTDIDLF

inhibition at 500 µM: ~35%
Structure (SMILES): O=C(O)C(O)C(=O)O [Tartronic acid]
